Data from ChEMBL document CHEMBL1201862, “PubChem BioAssay data set” (2004).
Blank lines part the entries; values can stand above or below the compound they belong to. The source made the active and inactive calls.

How the values were obtained:
[1] = molecular target: T1, Acyl-homoserine lactone acylase PvdQ (Pseudomonas aeruginosa (strain LESB58), UniProt Q9I194); assay: P. aeruginosa PvdQ acylase inhibitors, dose response, biochemical, fluorescence, plate reader and imaging, cherry-picks (AID 493231)
T1 sequence (Q9I194 whole entry): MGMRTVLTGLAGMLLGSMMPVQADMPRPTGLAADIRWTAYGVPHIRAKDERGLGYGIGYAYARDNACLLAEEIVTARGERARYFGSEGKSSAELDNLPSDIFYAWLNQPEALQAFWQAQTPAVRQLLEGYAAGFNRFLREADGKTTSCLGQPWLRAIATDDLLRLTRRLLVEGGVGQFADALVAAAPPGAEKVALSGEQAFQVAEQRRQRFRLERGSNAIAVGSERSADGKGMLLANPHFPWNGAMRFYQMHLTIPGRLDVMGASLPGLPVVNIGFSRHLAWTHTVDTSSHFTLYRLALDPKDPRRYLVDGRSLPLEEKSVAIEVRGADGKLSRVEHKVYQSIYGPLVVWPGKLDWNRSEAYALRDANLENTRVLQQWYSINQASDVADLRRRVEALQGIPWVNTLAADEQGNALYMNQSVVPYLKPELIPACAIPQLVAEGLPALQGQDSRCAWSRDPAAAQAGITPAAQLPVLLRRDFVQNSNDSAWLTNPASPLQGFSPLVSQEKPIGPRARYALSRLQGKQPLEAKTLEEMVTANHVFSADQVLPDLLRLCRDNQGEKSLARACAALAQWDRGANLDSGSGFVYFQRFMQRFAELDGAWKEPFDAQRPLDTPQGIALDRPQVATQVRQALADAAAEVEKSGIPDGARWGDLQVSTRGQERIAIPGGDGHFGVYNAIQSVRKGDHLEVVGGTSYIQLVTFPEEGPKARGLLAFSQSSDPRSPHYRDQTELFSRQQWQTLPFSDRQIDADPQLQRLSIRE

[2] = molecular target: T2, Voltage-gated N-type calcium channel alpha-1B subunit/Amyloid beta A4 precursor protein-binding family A member 1 (Homo sapiens, UniProt Q00975+Q02410); format: protein assay
T2 sequence (Q00975 whole entry): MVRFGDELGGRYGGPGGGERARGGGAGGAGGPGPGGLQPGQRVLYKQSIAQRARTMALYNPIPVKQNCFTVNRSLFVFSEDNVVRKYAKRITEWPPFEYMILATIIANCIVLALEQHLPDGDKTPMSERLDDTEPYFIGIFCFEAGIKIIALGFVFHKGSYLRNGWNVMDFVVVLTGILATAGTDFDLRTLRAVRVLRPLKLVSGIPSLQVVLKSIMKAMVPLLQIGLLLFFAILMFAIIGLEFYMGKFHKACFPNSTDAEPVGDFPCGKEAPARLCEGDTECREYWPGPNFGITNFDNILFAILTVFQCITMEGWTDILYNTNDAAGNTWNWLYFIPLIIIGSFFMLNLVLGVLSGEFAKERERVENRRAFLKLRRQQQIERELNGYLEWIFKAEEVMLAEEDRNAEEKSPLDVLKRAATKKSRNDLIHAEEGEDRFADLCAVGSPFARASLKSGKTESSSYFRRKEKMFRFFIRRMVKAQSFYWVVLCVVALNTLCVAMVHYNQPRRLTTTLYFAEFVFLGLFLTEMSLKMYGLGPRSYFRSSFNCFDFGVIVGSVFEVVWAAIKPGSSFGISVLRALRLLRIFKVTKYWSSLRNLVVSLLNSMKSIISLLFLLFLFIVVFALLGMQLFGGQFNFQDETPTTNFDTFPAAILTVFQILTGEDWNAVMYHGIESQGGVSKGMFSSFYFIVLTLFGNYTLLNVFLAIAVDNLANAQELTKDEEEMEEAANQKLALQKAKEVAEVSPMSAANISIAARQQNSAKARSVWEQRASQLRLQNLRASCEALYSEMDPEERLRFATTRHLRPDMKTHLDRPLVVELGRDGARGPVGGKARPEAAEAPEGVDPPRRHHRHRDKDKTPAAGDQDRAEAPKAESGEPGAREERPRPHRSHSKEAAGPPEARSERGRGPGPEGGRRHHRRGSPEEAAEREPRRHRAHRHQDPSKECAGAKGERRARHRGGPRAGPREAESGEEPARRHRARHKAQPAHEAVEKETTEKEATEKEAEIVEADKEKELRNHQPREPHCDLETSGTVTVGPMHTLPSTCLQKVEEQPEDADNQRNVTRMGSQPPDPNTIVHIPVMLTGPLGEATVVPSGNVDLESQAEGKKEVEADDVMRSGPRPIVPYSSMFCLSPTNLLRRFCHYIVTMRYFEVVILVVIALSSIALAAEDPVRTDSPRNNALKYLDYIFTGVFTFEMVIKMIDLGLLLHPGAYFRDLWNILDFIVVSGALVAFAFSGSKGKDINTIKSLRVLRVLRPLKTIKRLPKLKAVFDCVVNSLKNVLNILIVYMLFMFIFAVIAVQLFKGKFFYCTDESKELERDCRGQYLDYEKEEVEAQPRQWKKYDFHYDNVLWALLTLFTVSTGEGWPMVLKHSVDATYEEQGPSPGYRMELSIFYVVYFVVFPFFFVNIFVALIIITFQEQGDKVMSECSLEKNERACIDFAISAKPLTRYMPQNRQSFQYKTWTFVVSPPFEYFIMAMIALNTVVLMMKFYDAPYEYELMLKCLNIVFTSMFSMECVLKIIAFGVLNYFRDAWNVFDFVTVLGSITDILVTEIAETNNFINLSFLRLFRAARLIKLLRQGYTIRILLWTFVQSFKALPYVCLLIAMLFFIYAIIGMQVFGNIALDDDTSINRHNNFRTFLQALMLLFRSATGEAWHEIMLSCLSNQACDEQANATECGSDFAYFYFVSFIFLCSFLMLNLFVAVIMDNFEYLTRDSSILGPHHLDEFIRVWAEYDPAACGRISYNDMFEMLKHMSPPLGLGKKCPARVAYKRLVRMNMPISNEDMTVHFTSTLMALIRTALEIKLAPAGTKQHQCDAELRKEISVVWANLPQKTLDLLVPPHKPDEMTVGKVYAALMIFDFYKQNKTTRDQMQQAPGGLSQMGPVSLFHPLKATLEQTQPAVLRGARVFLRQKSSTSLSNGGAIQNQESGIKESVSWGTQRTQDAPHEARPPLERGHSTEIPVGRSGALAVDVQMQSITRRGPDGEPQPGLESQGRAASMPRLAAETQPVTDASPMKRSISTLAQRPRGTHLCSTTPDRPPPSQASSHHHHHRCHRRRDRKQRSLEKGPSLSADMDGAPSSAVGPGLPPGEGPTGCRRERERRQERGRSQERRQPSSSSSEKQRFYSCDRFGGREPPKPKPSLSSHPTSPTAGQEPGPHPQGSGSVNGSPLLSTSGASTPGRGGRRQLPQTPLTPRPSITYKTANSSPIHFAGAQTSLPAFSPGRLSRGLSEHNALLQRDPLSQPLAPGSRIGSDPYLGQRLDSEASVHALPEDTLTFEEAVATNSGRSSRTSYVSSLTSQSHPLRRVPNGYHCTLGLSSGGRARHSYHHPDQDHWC
T2 sequence (Q02410 whole entry): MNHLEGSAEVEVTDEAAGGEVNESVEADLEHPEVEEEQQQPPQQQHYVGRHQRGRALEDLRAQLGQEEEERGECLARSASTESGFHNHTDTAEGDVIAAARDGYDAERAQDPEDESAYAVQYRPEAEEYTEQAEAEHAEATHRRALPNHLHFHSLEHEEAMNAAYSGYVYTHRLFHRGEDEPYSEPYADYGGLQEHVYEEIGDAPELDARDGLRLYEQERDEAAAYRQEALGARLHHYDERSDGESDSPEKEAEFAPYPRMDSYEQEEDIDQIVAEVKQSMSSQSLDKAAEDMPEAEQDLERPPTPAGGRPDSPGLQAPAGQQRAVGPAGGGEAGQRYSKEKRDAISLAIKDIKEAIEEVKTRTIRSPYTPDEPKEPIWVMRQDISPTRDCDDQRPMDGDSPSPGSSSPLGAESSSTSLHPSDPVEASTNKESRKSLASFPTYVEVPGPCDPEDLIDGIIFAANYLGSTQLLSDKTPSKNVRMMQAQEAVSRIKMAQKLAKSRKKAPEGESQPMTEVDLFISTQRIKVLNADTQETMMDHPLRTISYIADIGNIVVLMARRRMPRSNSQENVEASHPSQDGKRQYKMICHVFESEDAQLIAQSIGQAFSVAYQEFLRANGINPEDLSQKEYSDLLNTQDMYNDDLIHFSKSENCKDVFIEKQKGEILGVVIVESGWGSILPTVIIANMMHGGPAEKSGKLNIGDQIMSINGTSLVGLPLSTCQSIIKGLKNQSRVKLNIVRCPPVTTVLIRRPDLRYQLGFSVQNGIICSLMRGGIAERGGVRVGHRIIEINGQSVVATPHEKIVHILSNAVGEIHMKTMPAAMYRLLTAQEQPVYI

[3] = molecular target: T2, Voltage-gated N-type calcium channel alpha-1B subunit/Amyloid beta A4 precursor protein-binding family A member 1; format: protein assay; remark: listed apart in the source
[4] = molecular target: Induced myeloid leukemia cell differentiation protein Mcl-1 (Homo sapiens, UniProt Q07820); format: functional
Chain of Induced myeloid leukemia cell differentiation protein Mcl-1 (Q07820 whole entry): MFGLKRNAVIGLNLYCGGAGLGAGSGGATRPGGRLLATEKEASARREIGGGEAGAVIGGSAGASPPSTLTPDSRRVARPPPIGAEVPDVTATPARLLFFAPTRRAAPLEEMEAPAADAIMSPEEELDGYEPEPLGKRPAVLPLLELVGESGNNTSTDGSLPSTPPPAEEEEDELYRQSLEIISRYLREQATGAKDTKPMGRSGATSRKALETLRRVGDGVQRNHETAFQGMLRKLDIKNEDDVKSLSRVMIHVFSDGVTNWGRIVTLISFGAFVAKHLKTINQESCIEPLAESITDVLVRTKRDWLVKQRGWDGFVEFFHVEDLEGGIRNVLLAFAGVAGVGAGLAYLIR

Hexokinase = molecular target: T3, Hexokinase (Trypanosoma brucei, UniProt Q38C41); assay: Confirmation assay for inhibitors of Trypanosoma brucei hexokinase 1-Analogue-first series. [Related pubchem assays (depositor defined):AID1430, AID1632, AID2516, AID2560, AID2579, AID2600, AID449725, AID492951]; format: functional
T3 sequence (Q38C41 whole entry): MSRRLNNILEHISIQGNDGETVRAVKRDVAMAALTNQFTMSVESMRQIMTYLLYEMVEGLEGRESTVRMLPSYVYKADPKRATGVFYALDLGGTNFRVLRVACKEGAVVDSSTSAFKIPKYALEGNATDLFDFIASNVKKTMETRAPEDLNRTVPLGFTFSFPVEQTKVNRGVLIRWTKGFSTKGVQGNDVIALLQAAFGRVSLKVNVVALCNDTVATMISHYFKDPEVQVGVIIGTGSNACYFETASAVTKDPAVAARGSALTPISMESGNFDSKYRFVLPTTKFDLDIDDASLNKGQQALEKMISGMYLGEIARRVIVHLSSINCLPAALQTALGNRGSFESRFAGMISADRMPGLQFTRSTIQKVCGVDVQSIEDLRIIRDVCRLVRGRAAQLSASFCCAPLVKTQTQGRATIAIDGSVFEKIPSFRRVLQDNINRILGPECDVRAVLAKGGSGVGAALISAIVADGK

Aminopeptidase N = molecular target: T4, Aminopeptidase N (Plasmodium falciparum FcB1/Columbia, UniProt O96935); assay: P. falciparum M1AAP inhibitors, biochemical, fluorogenic H-Leu-NHMec substrate, 1536-well (AID 1445); set-up: species or system Plasmodium falciparum 3D7, 3D7
T4 sequence (O96935 whole entry): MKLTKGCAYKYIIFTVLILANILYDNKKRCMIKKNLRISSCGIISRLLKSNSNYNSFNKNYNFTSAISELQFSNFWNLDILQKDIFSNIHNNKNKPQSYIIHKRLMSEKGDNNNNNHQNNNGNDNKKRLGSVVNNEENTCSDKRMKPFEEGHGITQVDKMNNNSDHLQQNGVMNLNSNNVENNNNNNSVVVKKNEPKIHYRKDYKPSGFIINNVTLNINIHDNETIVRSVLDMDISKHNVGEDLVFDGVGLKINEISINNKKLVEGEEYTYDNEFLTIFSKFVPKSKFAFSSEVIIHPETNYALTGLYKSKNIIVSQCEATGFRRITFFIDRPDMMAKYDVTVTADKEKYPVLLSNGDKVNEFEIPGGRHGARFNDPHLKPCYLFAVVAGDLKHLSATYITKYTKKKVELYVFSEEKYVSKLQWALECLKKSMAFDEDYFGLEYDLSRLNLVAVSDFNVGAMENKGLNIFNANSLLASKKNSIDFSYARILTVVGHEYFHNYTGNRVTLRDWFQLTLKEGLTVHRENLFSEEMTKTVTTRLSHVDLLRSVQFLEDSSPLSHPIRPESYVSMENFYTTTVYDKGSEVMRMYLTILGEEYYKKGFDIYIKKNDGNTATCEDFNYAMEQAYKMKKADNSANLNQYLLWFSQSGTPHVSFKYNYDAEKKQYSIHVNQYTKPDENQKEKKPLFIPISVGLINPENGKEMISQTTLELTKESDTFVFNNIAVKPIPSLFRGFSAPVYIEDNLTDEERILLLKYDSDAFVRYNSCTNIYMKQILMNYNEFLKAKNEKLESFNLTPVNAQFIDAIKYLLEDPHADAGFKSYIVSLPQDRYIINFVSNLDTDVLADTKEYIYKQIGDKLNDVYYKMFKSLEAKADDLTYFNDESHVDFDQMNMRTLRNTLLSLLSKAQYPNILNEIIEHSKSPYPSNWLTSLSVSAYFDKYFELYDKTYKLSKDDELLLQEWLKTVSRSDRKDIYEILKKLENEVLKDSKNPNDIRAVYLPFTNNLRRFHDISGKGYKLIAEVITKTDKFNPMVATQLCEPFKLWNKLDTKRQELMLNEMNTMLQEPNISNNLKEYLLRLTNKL

SMILES: O=C(NC1CCS(=O)(=O)C1)c1cccc(Br)c1 (stereo unspecified)
- AC50 [1]: 8.94 µM (active)

SMILES: CCOC(=O)N1CCN(c2ccc(Cl)cc2)CC1
- AC50 [1]: 7.18 µM (active)

SMILES: COc1cccc(C(=O)CC(C#N)c2ccc(F)cc2)c1 (stereo unspecified)
- AC50 [1]: 6.55 µM (active)

SMILES: CN(Cc1ccccc1)C(=O)Cn1sc2ccccc2c1=O
- IC50 (Hexokinase): 7.87 µM (active)

Further lines, results first:

- IC50 [2]: 10.1 µM (active)
- IC50 [3]: 4.01 µM (active)
SMILES: C/C=C\C=C/C(=O)Nc1cccc(C2=NOC3(C2)C[C@@H](C(N)=O)N(C(=O)/C=C/C=C\C)C3)c1 (stereo partly specified)

- IC50 [2]: 3.56 µM (active)
- IC50 [3]: > 50 µM (inactive)
- IC50 [4]: 4.2 µM (active)
SMILES: CC(=O)Nc1ccc(C2=NN=C(Nc3cccc(S(=O)(=O)N(C)C)c3)SC2)cc1

- IC50 (Aminopeptidase N): 39.3 µM (active)
SMILES: CNC(=O)c1nc[nH]c1C(=O)N[C@@H](CC(C)C)C(=O)OC(C)(C)C

- IC50 (Aminopeptidase N): 107 µM (active)
SMILES: Fc1ccc(N2N=C(c3cccs3)CC2c2ccco2)c(F)c1 (stereo unspecified)
